Data published in PubChem BioAssay (NCI).
“And” between values parts separate entries of the source, which are not always exact repeats. Equal values may be shown once.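 48-hour exposure; five concentrations; linearly interpolated endpoints. GI50 = concentration required for 50% inhibition of growth. The concentration for full growth arrest is given as TGI.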 Where a SMILES comes first, the peptide text is derived from it. [ ]: non-standard residue; d: D form. 2Nal = N[CH](Cc1ccc2ccccc2c1)C(=O)O

Experiments:
Experiment in all cases: NCI tumour cell line growth inhibition, 48 h; in the data active means GI50 below about 0.43 µM; inactive means the rest
786-0 renal = system: 786-0 renal
A498 renal = system: A498 renal
A549 NSCLC = system: A549 NSCLC
ACHN renal = system: ACHN renal
CAKI-1 renal = system: CAKI-1 renal
CCRF-CEM leukemia = system: CCRF-CEM leukemia
COLO 205 colon = system: COLO 205 colon
DLD-1 colon = system: DLD-1 colon
DMS 114 small cell lung = system: DMS 114 small cell lung
EKVX NSCLC = system: EKVX NSCLC
HCC-2998 colon = system: HCC-2998 colon
HOP-62 NSCLC = system: HOP-62 NSCLC
HT29 colon = system: HT29 colon
IGROV1 ovarian = system: IGROV1 ovarian
K-562 leukemia = system: K-562 leukemia
KM12 colon = system: KM12 colon
KM20L2 colon = system: KM20L2 colon
LXFL 529 NSCLC = system: LXFL 529 NSCLC
M14 melanoma = system: M14 melanoma
M19-MEL melanoma = system: M19-MEL melanoma
MALME-3M melanoma = system: MALME-3M melanoma
MOLT-4 leukemia = system: MOLT-4 leukemia
NCI-H23 lung = system: NCI-H23 lung
NCI-H460 lung = system: NCI-H460 lung
NCI-H522 lung = system: NCI-H522 lung
OVCAR-3 ovarian = system: OVCAR-3 ovarian
OVCAR-4 ovarian = system: OVCAR-4 ovarian
OVCAR-5 ovarian = system: OVCAR-5 ovarian
OVCAR-8 ovarian = system: OVCAR-8 ovarian
RPMI-8226 leukemia = system: RPMI-8226 leukemia
SF-268 CNS = system: SF-268 CNS
SF-295 CNS = system: SF-295 CNS
SK-MEL-2 melanoma = system: SK-MEL-2 melanoma
SK-MEL-28 melanoma = system: SK-MEL-28 melanoma
SK-MEL-5 melanoma = system: SK-MEL-5 melanoma
SK-OV-3 ovarian = system: SK-OV-3 ovarian
SN12C renal = system: SN12C renal
SNB-19 CNS = system: SNB-19 CNS
SNB-75 CNS = system: SNB-75 CNS
SNB-78 CNS = system: SNB-78 CNS
SW-620 colon = system: SW-620 colon
TK-10 renal = system: TK-10 renal
U251 CNS = system: U251 CNS
UACC-257 melanoma = system: UACC-257 melanoma
UACC-62 melanoma = system: UACC-62 melanoma
UO-31 renal = system: UO-31 renal
XF 498 CNS = system: XF 498 CNS
DMS 273 small cell lung = system: DMS 273 small cell lung
DU-145 prostate = system: DU-145 prostate
HCT-116 colon = system: HCT-116 colon
HCT-15 colon = system: HCT-15 colon
HL-60(TB) leukemia = system: HL-60(TB) leukemia
HOP-18 NSCLC = system: HOP-18 NSCLC
HS 578T breast = system: HS 578T breast
LOX IMVI melanoma = system: LOX IMVI melanoma
MCF7 breast = system: MCF7 breast
MDA-MB-231 breast = system: MDA-MB-231 breast
MDA-MB-435 = system: MDA-MB-435
NCI-H226 lung = system: NCI-H226 lung
NCI/ADR-RES ovarian = system: NCI/ADR-RES ovarian
PC-3 prostate = system: PC-3 prostate
RXF 393 renal = system: RXF 393 renal
SF-539 CNS = system: SF-539 CNS
T-47D breast = system: T-47D breast
BT-549 breast = system: BT-549 breast
MDA-N = system: MDA-N
SR leukemia = system: SR leukemia
HOP-92 NSCLC = system: HOP-92 NSCLC

COc1ccc(OC)c(CCc2cc(OC)c(OC)cc2C)c1
47.2 µM: TGI (SF-295 CNS)
72.9 µM: TGI (DMS 114 small cell lung)
98.4 µM: TGI (SK-OV-3 ovarian)
20.4 µM: TGI (NCI-H522 lung)
92.7 µM: TGI (SNB-78 CNS)
90.1 µM: TGI (RPMI-8226 leukemia)
> 100 µM: TGI (786-0 renal) | TGI (A498 renal) | TGI (A549 NSCLC) | TGI (ACHN renal) | TGI (CAKI-1 renal) | TGI (CCRF-CEM leukemia) | TGI (COLO 205 colon) | TGI (DLD-1 colon) | TGI (EKVX NSCLC) | TGI (HCC-2998 colon) | TGI (HOP-62 NSCLC) | TGI (HT29 colon) | TGI (IGROV1 ovarian) | TGI (K-562 leukemia) | TGI (KM12 colon) | TGI (KM20L2 colon) | TGI (LXFL 529 NSCLC) | TGI (M14 melanoma) | TGI (M19-MEL melanoma) | TGI (MALME-3M melanoma) | TGI (MOLT-4 leukemia) | TGI (NCI-H23 lung) | TGI (NCI-H460 lung) | TGI (OVCAR-3 ovarian) | TGI (OVCAR-4 ovarian) | TGI (OVCAR-5 ovarian) | TGI (OVCAR-8 ovarian) | TGI (SF-268 CNS) | TGI (SK-MEL-2 melanoma) | TGI (SK-MEL-28 melanoma) | TGI (SK-MEL-5 melanoma) | TGI (SN12C renal) | TGI (SNB-19 CNS) | TGI (SNB-75 CNS) | TGI (SW-620 colon) | TGI (TK-10 renal) | TGI (U251 CNS) | TGI (UACC-257 melanoma) | TGI (UACC-62 melanoma) | TGI (UO-31 renal) | TGI (XF 498 CNS)

CC(NC(=O)C(N)Cc1ccccc1)C(=O)NC(Cc1ccc(O)cc1)C(=O)NC(Cc1c[nH]c2ccccc12)C(=O)NC(CCCCN)C(=O)NC(C(=O)NC(C)C(=O)NC(Cc1ccc2ccccc2c1)C(N)=O)C(C)C (stereo not drawn) (H-FAYWKVA[2Nal]-NH2; configuration not given here)
> 12.5 µM and 49.4 µM: TGI (A498 renal)
> 12.5 µM and 61.2 µM: TGI (COLO 205 colon)
> 12.5 µM and 52.1 µM: TGI (ACHN renal) | TGI (SK-MEL-2 melanoma)
> 12.5 µM and 58.6 µM: TGI (UO-31 renal)
> 12.5 µM: TGI (DU-145 prostate) | TGI (HS 578T breast) | TGI (LOX IMVI melanoma) | TGI (M14 melanoma) | TGI (MALME-3M melanoma) | TGI (MCF7 breast) | TGI (MDA-MB-231 breast) | TGI (MDA-MB-435) | TGI (NCI-H226 lung) | TGI (NCI-H522 lung) | TGI (NCI/ADR-RES ovarian) | TGI (OVCAR-5 ovarian) | TGI (SF-268 CNS) | TGI (SF-295 CNS) | TGI (SK-MEL-5 melanoma) | TGI (SK-OV-3 ovarian) | TGI (SW-620 colon) | TGI (T-47D breast)
> 12.5 µM and 29.4 µM: TGI (CCRF-CEM leukemia)
> 100 µM: TGI (DLD-1 colon) | TGI (HCC-2998 colon) | TGI (HCT-116 colon) | TGI (HT29 colon) | TGI (OVCAR-8 ovarian) | TGI (SK-MEL-28 melanoma) | TGI (SN12C renal) | TGI (SNB-78 CNS) | TGI (UACC-257 melanoma)
> 12.5 µM and 48.7 µM: TGI (A549 NSCLC)
> 12500 nM: TGI (PC-3 prostate)
46.3 µM: TGI (HOP-18 NSCLC)
71.8 µM: TGI (SNB-75 CNS)
> 12.5 µM and 84.3 µM: TGI (OVCAR-4 ovarian)
78 µM: TGI (KM20L2 colon)
> 12.5 µM and 81 µM: TGI (EKVX NSCLC)
> 12.5 µM and 61.8 µM: TGI (HCT-15 colon)
> 12.5 µM and 67 µM: TGI (U251 CNS)
> 12.5 µM and 75.7 µM: TGI (UACC-62 melanoma)
54.1 µM: TGI (DMS 273 small cell lung)
> 12.5 µM and 52.3 µM: TGI (NCI-H460 lung)
> 12.5 µM and 39.1 µM: TGI (CAKI-1 renal)
> 12.5 µM and 31.9 µM: TGI (HL-60(TB) leukemia)
> 12.5 µM and 30.5 µM: TGI (K-562 leukemia)
> 12.5 µM and 43.2 µM: TGI (OVCAR-3 ovarian)
71.1 µM: TGI (SNB-19 CNS)
> 12.5 µM and 49 µM: TGI (IGROV1 ovarian)
> 12.5 µM and 53.5 µM: TGI (HOP-62 NSCLC)
32 µM: TGI (MOLT-4 leukemia)
> 12.5 µM and 75.4 µM: TGI (NCI-H23 lung)
inactive: GI50 (786-0 renal) 24.8 µM | GI50 (A498 renal) 19.4 µM | GI50 (A549 NSCLC) 20.7 µM | GI50 (ACHN renal) 22.7 µM | GI50 (CCRF-CEM leukemia) 16 µM | GI50 (COLO 205 colon) 27.1 µM | GI50 (EKVX NSCLC) 25.9 µM | GI50 (HCC-2998 colon) 29.7 µM | GI50 (HCT-116 colon) 33.9 µM | GI50 (HCT-15 colon) 22.1 µM | GI50 (HL-60(TB) leukemia) 18 µM | GI50 (HOP-62 NSCLC) 23.1 µM | GI50 (HT29 colon) 37.1 µM | GI50 (IGROV1 ovarian) 24.1 µM | GI50 (K-562 leukemia) 16.9 µM | GI50 (KM12 colon) 21.9 µM | GI50 (MOLT-4 leukemia) 16.7 µM | GI50 (NCI-H23 lung) 25.7 µM | GI50 (NCI-H460 lung) 22.7 µM | GI50 (OVCAR-3 ovarian) 18.8 µM | GI50 (OVCAR-4 ovarian) 27.2 µM | GI50 (OVCAR-8 ovarian) 37.2 µM | GI50 (RPMI-8226 leukemia) 16.3 µM | GI50 (RXF 393 renal) 17.7 µM | GI50 (SF-539 CNS) 21.8 µM | GI50 (SK-MEL-2 melanoma) 25.1 µM | GI50 (SK-MEL-28 melanoma) 53.4 µM | GI50 (SN12C renal) > 100 µM | GI50 (U251 CNS) 25.1 µM | GI50 (UACC-257 melanoma) > 100 µM | GI50 (UACC-62 melanoma) 26.8 µM | GI50 (UO-31 renal) 27.1 µM
> 12.5 µM and 36.5 µM: TGI (RXF 393 renal)
92.6 µM: TGI (DMS 114 small cell lung)
74 µM: TGI (M19-MEL melanoma)
54.9 µM: TGI (XF 498 CNS)
> 12.5 µM and 53.3 µM: TGI (KM12 colon)
> 12.5 µM and 30.4 µM: TGI (RPMI-8226 leukemia)
> 12.5 µM and 65.1 µM: TGI (786-0 renal)
> 12.5 µM and 62.4 µM: TGI (SF-539 CNS)

CO[C@H](/C(C)=C/C=C/C(C)=C/c1coc(C)n1)[C@H](C)[C@H]1C[C@@H](O)[C@@]2(C)O[C@H]2/C=C/[C@@H](C)[C@@H]2C[C@@H](CC(=O)O2)C[C@H]2O[C@@H]2C(=O)O1
active: GI50 (786-0 renal) 1.06e-07 µM | GI50 (BT-549 breast) 0.0133 nM | GI50 (M14 melanoma) 0.1 pM | GI50 (MDA-MB-231 breast) 0.942 pM | GI50 (TK-10 renal) 0.042 µM
2.25 µM and 0.576 µM: TGI (XF 498 CNS)
3.99 µM and 31 µM and > 31.6 µM: TGI (OVCAR-5 ovarian)
> 64 µM: TGI (ACHN renal)
0.0005 µM: TGI (KM20L2 colon)
> 100 µM: TGI (SR leukemia)
2.81 µM: TGI (BT-549 breast)
5 µM and 50 µM and 11.4 µM: TGI (UACC-257 melanoma)
2.15 pM: TGI (MDA-N)
> 69.5 µM: TGI (TK-10 renal)
0.00237 nM: TGI (PC-3 prostate)

O=C1OC(=O)C2C3CCC(O3)C12 (stereo not drawn)
> 100 µM: TGI (786-0 renal) | TGI (A498 renal) | TGI (A549 NSCLC) | TGI (ACHN renal) | TGI (CAKI-1 renal) | TGI (CCRF-CEM leukemia) | TGI (COLO 205 colon) | TGI (DLD-1 colon) | TGI (DMS 114 small cell lung) | TGI (DMS 273 small cell lung) | TGI (EKVX NSCLC) | TGI (HCC-2998 colon) | TGI (HCT-116 colon) | TGI (HL-60(TB) leukemia) | TGI (HOP-18 NSCLC) | TGI (HOP-62 NSCLC) | TGI (HOP-92 NSCLC) | TGI (HT29 colon) | TGI (IGROV1 ovarian) | TGI (K-562 leukemia) | TGI (KM12 colon) | TGI (LXFL 529 NSCLC) | TGI (M14 melanoma) | TGI (M19-MEL melanoma) | TGI (MALME-3M melanoma) | TGI (MOLT-4 leukemia) | TGI (NCI-H226 lung) | TGI (NCI-H23 lung) | TGI (NCI-H460 lung) | TGI (OVCAR-3 ovarian) | TGI (OVCAR-5 ovarian) | TGI (OVCAR-8 ovarian) | TGI (RPMI-8226 leukemia) | TGI (RXF 393 renal) | TGI (SF-268 CNS) | TGI (SF-295 CNS) | TGI (SF-539 CNS) | TGI (SK-MEL-2 melanoma) | TGI (SK-MEL-28 melanoma) | TGI (SK-MEL-5 melanoma) | TGI (SK-OV-3 ovarian) | TGI (SN12C renal) | TGI (SNB-19 CNS) | TGI (SNB-78 CNS) | TGI (SR leukemia) | TGI (SW-620 colon) | TGI (TK-10 renal) | TGI (U251 CNS) | TGI (UACC-257 melanoma) | TGI (UACC-62 melanoma) | TGI (UO-31 renal) | TGI (XF 498 CNS)
